This note sets out measurements from patent publication US20100168468A1, “WRINKLE-PREVENTING AND IMPROVING COMPOSITION” (Kyowa Hakko Kirin Co., Ltd., priority 2005, published 2010).

The test system of this assay is Fibroblasts. Kind of assay: Production amount of type I collagen by fibroblasts. It is filed as cell-based. Conditions: cultured for two days in DMEM without growth factors; amount without sarcosine set as 100 (FIG. 4). The procedure:
The production of collagen was measured in the following method. Fibroblasts were plated on 24 wells, and were allowed to stand while culturing until the cells fully adhered. Then, the culture liquid (DMEM supplemented with growth factors) was replaced with a medium (DMEM without growth factors) to which the drug (sarcosine) was added to the desired concentration, and cultured for two days. The culture supernatant was removed, and the production amount of type I collagen was determined using the TAKARA's Procollagen type I-Cppeptide EIA KIT. Cell counts were determined by measuring the amount of DNA using Hoechst and then converting it to a cell count. Finally the production amount of collagen was compared as the production amount of collagen per unit cell.

In the case of `CNCC(=O)O` [sarcosine], the “production amount of collagen per unit cell” value was “increases with sarcosine addition in dose dependent manner”.
